# In patent US8796289B2 (AbbVie Inc., priority 2011, dated 2014):
# Biological target: GST-tagged-Wee1 kinase (Homo sapiens, UniProt P30291)
# Experiment: Wee1 time-resolved fluorescence equilibrium binding assay (displacement of Oregon Green-labeled ATP-competitive kinase probe)
# Experimental: Wee1 kinase was assayed using a time-resolved fluorescence equilibrium binding assay monitoring displacement of a rapidly reversible Oregon Green-labeled ATP-competitive kinase probe (N-(2-(2-(2-(4-(4-(5-chloro-4-(2-(1-hydroxycyclobutyl)thiazol-5-yl)-1H-pyrrolo[2,3-b]pyridin-2-yl)phenyl)piperazin-1-yl)ethoxy)ethoxy)ethyl)-2′,7′-difluoro-3′,6′-dihydroxy-3-oxo-3H-spiro[isobenzofuran-1,9′-xanthene]-5-carboxamide) by competitive Wee1 inhibitors.
# GST-tagged-Wee1 kinase, sequence (P30291 whole entry): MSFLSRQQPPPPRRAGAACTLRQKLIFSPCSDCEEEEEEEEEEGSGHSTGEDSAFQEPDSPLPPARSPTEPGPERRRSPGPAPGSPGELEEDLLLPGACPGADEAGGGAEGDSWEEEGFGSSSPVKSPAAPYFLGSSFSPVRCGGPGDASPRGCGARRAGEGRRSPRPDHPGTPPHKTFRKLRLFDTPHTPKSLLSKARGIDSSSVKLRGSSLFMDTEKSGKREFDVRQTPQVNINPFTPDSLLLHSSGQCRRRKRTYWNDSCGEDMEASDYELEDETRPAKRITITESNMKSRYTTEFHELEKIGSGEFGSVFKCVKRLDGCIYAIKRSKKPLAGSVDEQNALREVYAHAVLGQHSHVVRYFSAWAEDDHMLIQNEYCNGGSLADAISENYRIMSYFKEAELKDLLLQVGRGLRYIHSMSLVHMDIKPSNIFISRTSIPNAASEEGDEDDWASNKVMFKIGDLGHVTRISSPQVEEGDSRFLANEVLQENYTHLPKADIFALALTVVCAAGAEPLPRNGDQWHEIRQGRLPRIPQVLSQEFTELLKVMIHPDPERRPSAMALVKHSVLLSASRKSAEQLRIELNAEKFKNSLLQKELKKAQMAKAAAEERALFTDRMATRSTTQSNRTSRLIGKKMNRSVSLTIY
row,SMILES,Ki
1,"CN1CCN(c2ccc(Nc3ncc4c(=O)n(-c5c(Cl)cccc5Cl)nc(CO)c4n3)cc2)CC1 [Example 431, 6-(2,6-dichlorophenyl)-8-(hydroxymethyl)-2-{[4-(4-methylpiperazin-1-yl)phenyl]amino}pyrimido[4,5-d]pyridazin-5(6H)-one]",0.42 nM
2,"CN1Cc2cc(Nc3ncc4c(=O)n(-c5c(Cl)cccc5Cl)nc(CO)c4n3)ccc2C2(CC2)C1 [Example 432, 6-(2,6-dichlorophenyl)-8-(hydroxymethyl)-2-[(2′-methyl-2′,3′-dihydro-1′H-spiro[cyclopropane-1,4′-isoquinolin]-7′-yl)amino]pyrimido[4,5-d]pyridazin-5(6H)-one]",0.2 nM
3,"O=c1c2cnc(Nc3ccc4c(c3)CNCC43CC3)nc2c(CO)nn1-c1c(Cl)cccc1Cl [Example 433, 6-(2,6-dichlorophenyl)-2-(2′,3′-dihydro-1′H-spiro[cyclopropane-1,4′-isoquinolin]-7′-ylamino)-8-(hydroxymethyl)pyrimido[4,5-d]pyridazin-5(6H)-one]",0.15 nM
4,"Cc1nn(-c2c(Cl)cccc2Cl)c(=O)c2cnc(Nc3ccc4c(c3)CCN(C)C4)nc12 [Example 435, 6-(2,6-dichlorophenyl)-8-methyl-2-[(2-methyl-1,2,3,4-tetrahydroisoquinolin-6-yl)amino]pyrimido[4,5-d]pyridazin-5(6H)-one]",0.46 nM
5,"Cc1nn(-c2c(Cl)cccc2Cl)c(=O)c2cnc(Nc3ccc4c(c3)CN(S(N)(=O)=O)CC43CC3)nc12 [Example 436, 7′-{[6-(2,6-dichlorophenyl)-8-methyl-5-oxo-5,6-dihydropyrimido[4,5-d]pyridazin-2-yl]amino}-1′H-spiro[cyclopropane-1,4′-isoquinoline]-2′(3′H)-sulfonamide]",0.65 nM
6,"Cc1nn(-c2c(Cl)cccc2Cl)c(=O)c2cnc(Nc3ccc4c(c3)CCN(C(=O)C(C)(C)O)C4)nc12 [Example 437, 6-(2,6-dichlorophenyl)-2-{[2-(2-hydroxy-2-methylpropanoyl)-1,2,3,4-tetrahydroisoquinolin-6-yl]amino}-8-methylpyrimido[4,5-d]pyridazin-5(6H)-one]",0.8 nM
7,"Cc1nn(-c2c(Cl)cccc2Cl)c(=O)c2cnc(Nc3ccc4c(c3)CNCC4(C)C)nc12 [Example 438, 6-(2,6-dichlorophenyl)-2-[(4,4-dimethyl-1,2,3,4-tetrahydroisoquinolin-7-yl)amino]-8-methylpyrimido[4,5-d]pyridazin-5(6H)-one]",0.18 nM
8,"CC(=O)N1Cc2cc(Nc3ncc4c(=O)n(-c5c(Cl)cccc5Cl)nc(C)c4n3)ccc2C(C)(C)C1 [Example 439, 2-[(2-acetyl-4,4-dimethyl-1,2,3,4-tetrahydroisoquinolin-7-yl)amino]-6-(2,6-dichlorophenyl)-8-methylpyrimido[4,5-d]pyridazin-5(6H)-one]",0.69 nM
9,"Cc1nn(-c2c(Cl)cccc2Cl)c(=O)c2cnc(Nc3ccc4c(c3)CN(C(=O)C3CC3)CC4(C)C)nc12 [Example 440, 2-{[2-(cyclopropylcarbonyl)-4,4-dimethyl-1,2,3,4-tetrahydroisoquinolin-7-yl]amino}-6-(2,6-dichlorophenyl)-8-methylpyrimido[4,5-d]pyridazin-5(6H)-one]",0.82 nM
10,"Cc1nn(-c2c(Cl)cccc2Cl)c(=O)c2cnc(Nc3ccc4c(c3)CN(S(C)(=O)=O)CC4(C)C)nc12 [Example 441, 6-(2,6-dichlorophenyl)-2-{[4,4-dimethyl-2-(methylsulfonyl)-1,2,3,4-tetrahydroisoquinolin-7-yl]amino}-8-methylpyrimido[4,5-d]pyridazin-5(6H)-one]",0.72 nM
11,"Cc1nn(-c2c(Cl)cccc2Cl)c(=O)c2cnc(Nc3ccc(N4CCNC(=O)C4)cc3)nc12 [Example 442, 6-(2,6-dichlorophenyl)-8-methyl-2-{[4-(3-oxopiperazin-1-yl)phenyl]amino}pyrimido[4,5-d]pyridazin-5(6H)-one]",0.46 nM
12,"Cc1nn(-c2c(Cl)cccc2Cl)c(=O)c2cnc(Nc3ccc4c(c3)C(C)(C)N(C)CC4)nc12 [Example 443, 6-(2,6-dichlorophenyl)-8-methyl-2-[(1,1,2-trimethyl-1,2,3,4-tetrahydroisoquinolin-7-yl)amino]pyrimido[4,5-d]pyridazin-5(6H)-one]",0.3 nM
13,"Cc1nn(-c2c(Cl)cccc2Cl)c(=O)c2cnc(Nc3ccc4c(c3)C(C)(C)NCC4)nc12 [Example 444, 6-(2,6-dichlorophenyl)-2-[(1,1-dimethyl-1,2,3,4-tetrahydroisoquinolin-7-yl)amino]-8-methylpyrimido[4,5-d]pyridazin-5(6H)-one]",0.16 nM

# Further lines, results first:
row,Ki,SMILES
1,0.33 nM,"Cc1nn(-c2c(Cl)cccc2Cl)c(=O)c2cnc(Nc3ccc(N4CCN(C5COC5)CC4)cc3)nc12 [Example 445, 6-(2,6-dichlorophenyl)-8-methyl-2-({4-[4-(oxetan-3-yl)piperazin-1-yl]phenyl}amino)pyrimido[4,5-d]pyridazin-5(6H)-one]"
2,0.27 nM,"Cc1nn(-c2c(Cl)cccc2Cl)c(=O)c2cnc(Nc3ccc(N4CC5CNCC5C4)cc3)nc12 (stereo not shown) [Example 446, 6-(2,6-dichlorophenyl)-2-{[4-(hexahydropyrrolo[3,4-c]pyrrol-2(1H)-yl)phenyl]amino}-8-methylpyrimido[4,5-d]pyridazin-5(6H)-one]"
3,0.4 nM,"Cc1nn(-c2c(Cl)cncc2Cl)c(=O)c2cnc(Nc3ccc4c(c3)CNCC43CC3)nc12 [Example 447, 6-(3,5-dichloropyridin-4-yl)-2-(2′,3′-dihydro-1′H-spiro[cyclopropane-1,4′-isoquinolin]-7′-ylamino)-8-methylpyrimido[4,5-d]pyridazin-5(6H)-one]"
4,0.5 nM,"Cc1nn(-c2c(Cl)cncc2Cl)c(=O)c2cnc(Nc3ccc4c(c3)CCNC4)nc12 [Example 448, 6-(3,5-dichloropyridin-4-yl)-8-methyl-2-(1,2,3,4-tetrahydroisoquinolin-6-ylamino)pyrimido[4,5-d]pyridazin-5(6H)-one]"
5,0.55 nM,"CC(=O)N1CCc2cc(Nc3ncc4c(=O)n(-c5c(Cl)cccc5Cl)nc(C)c4n3)ccc2C1 [Example 449, 2-[(2-acetyl-1,2,3,4-tetrahydroisoquinolin-6-yl)amino]-6-(2,6-dichlorophenyl)-8-methylpyrimido[4,5-d]pyridazin-5(6H)-one]"
6,0.61 nM,"Cc1nn(-c2c(Cl)cccc2Cl)c(=O)c2cnc(Nc3ccc4c(c3)CCN(S(C)(=O)=O)C4)nc12 [Example 450, 6-(2,6-dichlorophenyl)-8-methyl-2-{[2-(methylsulfonyl)-1,2,3,4-tetrahydroisoquinolin-6-yl]amino}pyrimido[4,5-d]pyridazin-5(6H)-one]"
7,0.19 nM,"Cc1nn(-c2c(Cl)cccc2Cl)c(=O)c2cnc(Nc3ccc4c(c3)CNC4)nc12 [Example 451, 6-(2,6-dichlorophenyl)-2-(2,3-dihydro-1H-isoindol-5-ylamino)-8-methylpyrimido[4,5-d]pyridazin-5(6H)-one]"
8,0.16 nM,"Cc1nn(-c2c(Cl)cccc2Cl)c(=O)c2cnc(Nc3ccc4c(c3)CCNC4(C)C)nc12 [Example 452, 6-(2,6-dichlorophenyl)-2-[(1,1-dimethyl-1,2,3,4-tetrahydroisoquinolin-6-yl)amino]-8-methylpyrimido[4,5-d]pyridazin-5(6H)-one]"
9,0.36 nM,"Cc1nn(-c2c(Cl)cccc2Cl)c(=O)c2cnc(Nc3ccc4c(c3)CCN(C)C4(C)C)nc12 [Example 453, 6-(2,6-dichlorophenyl)-8-methyl-2-[(1,1,2-trimethyl-1,2,3,4-tetrahydroisoquinolin-6-yl)amino]pyrimido[4,5-d]pyridazin-5(6H)-one]"
